Measured values published in US20200316178A1 (SHIRE HUMAN GENETIC THERAPIES, INC., priority 2017, published 2020).
Like-named read-outs stand apart in the source and are kept apart here.

Columns and labels:
[1] = pH of IFGT dissolved in water; assay type: physicochemical; settings: 103 mg dissolved in 5 ml of water
Protocol: When IFGT is dissolved in water, an acidic solution results. […] The pH was adjusted to 6.0 by adding 15 μl 10 M sodium hydroxide to the solution.

[2] = test system: endogenous serum GCB; settings: SC dose of 2.5 mg/kg
[3] = Serum exposure of GCB after SC velaglucerase alfa with IFG (ECL ELISA, 4MU-GPS activity assay); settings: 0.07 mg/kg IFGT added to 4 mg/kg GCB
Protocol: Test articles for dosing were prepared as frozen formulations to the animal facility prior to dosing. Test articles were thawed approximately 1 to 3 hours prior to dosing.

[4] = biological target: T1, GCB (Homo sapiens, UniProt P04062); experiment: SDS-PAGE of GCB with non-pH-adjusted isofagomine; assay type: physicochemical; settings: non-pH-adjusted isofagomine added to GCB
T1 sequence (P04062 40-536): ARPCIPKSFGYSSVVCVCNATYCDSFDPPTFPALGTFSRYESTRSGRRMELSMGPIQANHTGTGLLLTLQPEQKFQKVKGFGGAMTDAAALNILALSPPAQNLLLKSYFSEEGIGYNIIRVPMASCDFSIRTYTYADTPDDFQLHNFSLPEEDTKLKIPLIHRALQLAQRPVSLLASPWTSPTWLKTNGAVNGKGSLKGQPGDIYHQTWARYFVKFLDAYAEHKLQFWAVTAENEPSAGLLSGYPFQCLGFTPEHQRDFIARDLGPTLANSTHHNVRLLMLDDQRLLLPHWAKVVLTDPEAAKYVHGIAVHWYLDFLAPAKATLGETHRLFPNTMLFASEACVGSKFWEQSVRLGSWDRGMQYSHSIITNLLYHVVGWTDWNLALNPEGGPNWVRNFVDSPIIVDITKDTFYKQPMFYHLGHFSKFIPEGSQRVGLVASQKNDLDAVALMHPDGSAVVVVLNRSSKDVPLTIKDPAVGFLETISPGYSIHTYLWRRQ
Protocol: (§1) Samples were denatured at 37° C. for 15 minutes. SDS-PAGE was run on an 8-16% Novex™ Tris-glycine pre-cast gel. 50 mM dithiothretiol was used as the reducing agent.

[5] = biological target: T1, GCB; experiment: SDS-PAGE of GCB with pH-adjusted isofagomine; assay type: physicochemical; settings: isofagomine pH adjusted to 6.0, GCB from 100 mg/ml, Day 0 and Day 3
Protocol: as §1
The results are shown in FIG. 4A for Day 0 and in FIG. 4B for Day 3.

[6] = biological target: T2, GCB (immobilized velaglucerase alfa) (Homo sapiens, UniProt P04062)
T2 sequence (P04062 40-536): T1 sequence (P04062 40-536)
Protocol: All SPR experiments were performed on a Biacore S-200 by a single-cycle kinetics method. For experiments at pH 7.4, 2 mg/ml GCB was diluted into the GE acetate pH 5.0 buffer to the final concentration of 100 μg/ml. The immobilization running buffer was 10 mM HEPES, 5 mM EDTA, 0.01% P-20, pH 7.4. This buffer was used directly in the binding assay subsequently.
For experiments at pH 5.0, 2 mg/ml GCB was diluted into the GE acetate pH 5.0 buffer to the final concentration of 100 μg/ml. The immobilization running buffer was 20 mM sodium phosphate, 2.7 mM potassium chloride, 137 mM sodium chloride, 5 mM tartrate, 0.01% P-20, pH 5.0. […] GCB was immobilized on a CM5 chip using a normal […] coupling procedure. The target immobilization level was 4000 RU.
For Biacore experiments at pH 7.4, the concentration range was 0.39-100 nM. The total was 9 points with 2-fold serial dilution. For Biacore experiments at pH 5.0, the concentration range was 0.39-100 nM. The total was 9 points with 2-fold serial dilution.
The conditions for the binding assay were as follows: 30 μl/min flow rate, 120 s association time, 600 s dissociation time, and 3 M magnesium chloride as the regeneration reagent.
For each of the pH 5.0 and pH 7.4 studies, two runs were performed. Black lines represent actual data and red lines represent model fitting.

[7] = biological target: T3, VPRIV (a form of GCB) in human serum (Homo sapiens, UniProt P04062); experiment: VPRIV activity in human serum at 37° C. with IFG; assay type: in vitro ADME; settings: 10 nM VPRIV, human serum 37° C.; for VPRIV activity remaining: 60 minutes
T3 construct: Velaglucerase is secreted as a monomeric glycoprotein of approximately 63 kDa; Velaglucerase is composed of 497 amino acids; made in house
T3 sequence (P04062 40-536): T1 sequence (P04062 40-536)
Protocol: Enzyme activity was measured using the cleavage of the 4-methylumbelliferone b-D-glucopyranoside substrate.

Row | Structure (SMILES) | pH of the solution [1] | GCB activity in the serum [2] | overall enzyme activity of GCB in serum ([3]; 4MU-GPS substrate) | amount of GCB in serum ([3]; ECL ELISA) | fragments of GCB on SDS-PAGE ([4]; 4° C.) | fragments of GCB on SDS-PAGE ([4]; −80° C.) | smaller bands (<50 kDa) on SDS-PAGE [5] | ka ([6]; First Run at pH 5.0) [M⁻¹ s⁻¹] | kd ([6]; First Run at pH 5.0) [s⁻¹] | ka ([6]; First Run at pH 7.4) [M⁻¹ s⁻¹] | kd ([6]; First Run at pH 7.4) [s⁻¹] | ka ([6]; Second Run at pH 5.0) [M⁻¹ s⁻¹] | kd ([6]; Second Run at pH 5.0) [s⁻¹] | ka ([6]; Second Run at pH 7.4) [M⁻¹ s⁻¹] | kd ([6]; Second Run at pH 7.4) [s⁻¹] | VPRIV activity remaining ([7]; 1 nM IFG) | VPRIV activity remaining ([7]; 10 nM IFG) | loss of VPRIV activity ([7]; 30 nM IFG (3× molar ratio) and higher)
1 | O=C(O)[C@H](O)[C@@H](O)C(=O)O.OCC1CNCC(O)[C@@H]1O [Isofagomine tartrate, isofagomine tartrate] | 3.25 | increase GCB activity in the serum above the upper limit of normal | substantially increased | substantially increased |  |  |  |  |  |  |  |  |  |  |  |  |  | 
2 | OC[C@H]1CNC[C@@H](O)[C@@H]1O [IFG, isofagomine] |  |  |  |  | yielded fragments of GCB | not | No smaller bands having sizes of less than 50 kDa were observed | 12500 | 0.00314 | 242000 | 0.002274 | 9883 | 0.001954 | 280000 | 0.001785 | around 40% | around 40% | prevented most of the loss of activity
